Test results reported in patent publication US20150011751A1, “NOVEL TRIAZINE DERIVATIVE” (CARNA BIOSCIENCES, INC., priority 2012, published 2015).

What was measured:
[1] = test system: intracellular BTK (pY223) in Ramos cells; test: Inhibition of self-phosphorylation activity of intracellular BTK in IgM-stimulated Ramos cells (Western blot, Test Example 3-1); assay type: cell-based; conditions: test compound 1 μM, 1 hour, IgM 10 μg/mL 10 minutes
Source text: Combinations of primary antibody and secondary antibody as well as dilute concentrations used in the present test are as follows.

BTK = BTK (Homo sapiens, UniProt Q06187); test: Test of activity inhibition against BTK (mobility shift assay, QuickScout Screening Assist MSA)
Method: Kinase activity was measured by a mobility shift assay (MSA) method using QuickScout Screening Assist (trademark) MSA (commercially available kit, manufactured by Carna Biosciences, Inc.). FITC-labeled SRCtide peptide supplied with the kit was used as a substrate of a kinase reaction.
The heights of the respective peaks of the isolated substrate and phosphorylated substrate were designated S and P. Those containing the assay buffer added therein in place of the enzyme solution were measured as a blank.
Inhibition ratio (%) of a test compound was calculated according to the following equation:
where A, B, and C represent P/(P+S) of a blank well, P/(P+S) of a control solution well, and P/(P+S) of a well containing the compound added therein, respectively.
IC50 value was calculated by regression analysis of the inhibition ratio and the test compound concentration (logarithm).

Dephosphorylated BTK = Dephosphorylated BTK (Homo sapiens, UniProt Q06187); test: Test of activity inhibition against dephosphorylated BTK (mobility shift assay)
[2] = test system: intracellular BTK (pY223) in Ramos cells; test: cells; conditions: Homo sapiens, read-out: BTK phosphorylation inhibitory activity
Method: (§1) The supernatant was recovered by a centrifugal operation (at 15,000 rpm for 15 minutes) and the amount of protein was quantitatively determined. The supernatant was mixed with SDS-sample buffer and the mixture was reacted at 95° C. for 5 minutes thereby modifying the protein to obtain a sample solution. […] Thereafter, the protein in the gel was transferred to a PVDF membrane, using an iBlot gel transfer system (Life Technologies Corporation).
(§2) The unreacted secondary antibody was washed with TBST buffer and reacted according to the attached protocol, using ECL Prime Western Blotting Detection System (GE Healthcare Ltd.), and then each band was detected by chemiluminescence using a CCD camera (ATTO, Light-CaptureII). The detected band was digitized by densitometry (ATTO CS Analyzer ver.3.0) and an inhibition ratio was calculated from the intensity of a band in each group on the assumption that luminescence of a band of phosphorylated BTK of the compound no-addition and IgM stimulated group is 100%, whereas, luminescence of a band of phosphorylated BTK of the compound no-addition and IgM non-stimulated group is 0%. Each band of phosphorylated BTK was corrected by the total BTK.
(§3) Thereafter, IgM (Invitrogen, H15100) diluted with the medium was added so that the final concentration becomes 10 μg/mL, followed by incubation at 37° C. for 10 minutes.
(§4) The intracellular BTK autophosphorylation inhibiting activity was indicated with the mark “***” when 70% or more, with the mark “**” when 50% or more and less than 70%, and with the mark “*” when 30% or more and less than 50%.

[3] = test system: intracellular BTK (pY223) in Ramos cells; conditions: test compound 0.3 μM, 1 hour, IgM 10 μg/mL 10 minutes
Method: as §1, §2, §3, §4

Sequence of Dephosphorylated BTK (Q06187 whole entry): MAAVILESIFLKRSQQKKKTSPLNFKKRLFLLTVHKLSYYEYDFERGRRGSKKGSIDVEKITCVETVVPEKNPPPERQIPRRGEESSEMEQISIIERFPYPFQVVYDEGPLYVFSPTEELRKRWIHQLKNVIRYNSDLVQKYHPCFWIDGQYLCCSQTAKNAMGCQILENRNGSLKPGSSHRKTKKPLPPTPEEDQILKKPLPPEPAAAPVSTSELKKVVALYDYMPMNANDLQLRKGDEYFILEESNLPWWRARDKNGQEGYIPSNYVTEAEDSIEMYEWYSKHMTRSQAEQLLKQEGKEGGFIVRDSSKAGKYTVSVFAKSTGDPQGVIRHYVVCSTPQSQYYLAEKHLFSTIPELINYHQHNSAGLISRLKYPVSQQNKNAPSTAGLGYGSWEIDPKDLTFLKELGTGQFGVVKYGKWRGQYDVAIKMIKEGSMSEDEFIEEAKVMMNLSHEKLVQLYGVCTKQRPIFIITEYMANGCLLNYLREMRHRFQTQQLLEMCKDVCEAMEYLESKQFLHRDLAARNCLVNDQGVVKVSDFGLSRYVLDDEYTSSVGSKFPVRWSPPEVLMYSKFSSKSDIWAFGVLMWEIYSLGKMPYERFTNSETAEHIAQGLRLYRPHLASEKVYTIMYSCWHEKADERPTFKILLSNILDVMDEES
Sequence of BTK (Q06187 whole entry): as above

SMILES	IC50 (BTK)	IC50 (Dephosphorylated BTK)	BTK phosphorylation inhibition ratio [1]	inhibition at 0.3 µM [2]	BTK phosphorylation inhibitory activity [3]
COc1cc(Nc2ncnc(-c3cccc(NC(=O)c4ccc(C(C)(C)C)cc4)c3C)n2)cc(OC)c1OC [Example 1, 4-(tert-Butyl)-N-(2-methyl-3-[4-[(3,4,5-trimethoxyphenyl)amino]-1,3,5-triazin-2-yl]phenyl)benzamide]	10 nM	2.1 nM	107%	> 70%	–
Cc1c(NC(=O)c2ccc(C(C)(C)C)cc2)cccc1-c1ncnc(Nc2ccc(C(=O)N3CCN(C)CC3)cc2)n1 [Example 4, 4-(tert-Butyl)-N-[2-methyl-3-(4-{[4-(4-methylpiperazine-1-carbonyl)phenyl]amino}-1,3,5-triazin-2-yl)phenyl]benzamide]	10 nM	4.2 nM	–	–	–
Cc1c(NC(=O)c2ccc(C(C)(C)C)cc2)cccc1-c1ncnc(Nc2ccc(C(=O)N3CCOC(CN)C3)cc2)n1 (stereo not shown) [Example 7, N-{3-[4-({4-[2-(Amino-methyl)morpholine-4-car-bonyl]phenyl}amino)-1,3,5-triazin-2-yl]-2-methylphenyl}-4-(tert-butyl)benzamide]	8.2 nM	2.5 nM	–	–	–
Cc1c(NC(=O)c2ccc(C(C)(C)C)cc2)cccc1-c1ncnc(Nc2ccc(C(=O)NCCN3CCOCC3)cc2)n1 [Example 8, 4-(tert-Butyl)-N-{2-meth-yl-3-[4-({4-[(2-morpho-linoethyl)carbamoyl]phenyl}amino)-1,3,5-triazin-2-yl]phenyl} benzamide]	13.1 nM	3.5 nM	–	–	–
Cc1c(NC(=O)c2ccc(C(C)(C)C)cc2)cccc1-c1ncnc(Nc2ccc(C(=O)N3CCC(O)CC3)cc2)n1 [Example 9, 4-(tert-Butyl)-N-[3-(4-{[4-(4-hydroxypiper-idine-1-carbonyl)phenyl]amino}-1,3,5-triazin-2-yl)-2-methylphen-yl]benzamide]	12.6 nM	2.1 nM	–	–	–
Cc1c(NC(=O)c2ccc(C(C)(C)C)cc2)cccc1-c1ncnc(Nc2ccc(C(=O)N3CCN(CCO)CC3)cc2)n1 [Example 10, 4-(tert-Butyl)-N-{3-[4-({4-[4-(2-hydroxyeth-yl)piperazine-1-carbo-nyl]phenyl}amino)-1,3,5-triazin-2-yl]-2-meth-ylphenyl}benzamide]	12.8 nM	3.2 nM	–	–	–
Cc1c(NC(=O)c2ccc(C(C)(C)C)cc2)cccc1-c1nc(N)nc(Nc2ccc(C(=O)N3CCOC(CO)C3)cc2)n1 (stereo not shown) [Example 30, N-{3-[4-Amino-6-({4-[2-(hydroxymethyl)morpho-line-4-carbonyl]phe-nyl}amino)-1,3,5-tria-zin-2-yl]-2-methylphe-nyl}-4-(tert-butyl)benz-amide]	–	1.3 nM	–	> 70%	–
Cc1c(NC(=O)c2ccc(C(C)(C)C)cc2)cccc1-c1nc(N)nc(Nc2ccc(C(=O)N3CCOCC3CO)cc2)n1 (stereo not shown) [Example 31, N-{3-[4-Amino-6-({4-[3-(hydroxymethyl)morpho-line-4-carbonyl]phe-nyl}amino)-1,3,5-tria-zin-2-yl]-2-methylphe-nyl}-4-(tert-butyl) benzamide]	–	1.5 nM	–	> 70%	–
Cc1c(-c2nc(N)nc(Nc3ccc(C(=O)N4CCOCC4)cc3)n2)cccc1N1Cc2cc(C(C)(C)C)ccc2C1=O [Example 33, 2-[3-(4-Amino-6-{[4-(morpholine-4-carbonyl)phenyl]amino}-1,3,5-triazin-2-yl)-2-methylphenyl]-5-(tert-butyl)isoindolin-1-one]	–	–	–	> 70%	–
Nc1nc(Nc2ccc(N3CCOCC3)cc2)nc(-c2cccc(N3CCc4cc(C5CC5)cc(F)c4C3=O)c2CO)n1 [Example 44, 2-(3-{4-Amino-6-[(4-morpholinophenyl)amino]-1,3,5-triazin-2-yl}-2-(hydroxymethyl)phenyl)-6-cycropropyl-8-fluoro-3,4-dihydroisoquinolin-1(2H)-one]	–	–	–	–	*** (70% or more)

The next lines start with results.

IC50 (BTK)	IC50 (Dephosphorylated BTK)	SMILES	BTK phosphorylation inhibition ratio [1]	inhibition at 0.3 µM [2]	BTK phosphorylation inhibitory activity [3]
–	0.8 nM	Cc1c(NC(=O)c2ccc(C(C)(C)C)cc2)cccc1-c1nc(N)nc(Nc2ccc(C(=O)N3CCOC(CN)C3)cc2)n1 (stereo not shown) [Example 32, N-{3-[4-Amino-6-({4-[2-(aminomethyl)morpho-line-4-carbonyl]phenyl}amino)-1,3,5-triazin-2-yl]-2-methylphenyl}-4-(tert-butyl)benz-amide]	–	> 70%	–
–	1 nM	CN(C)CCCOc1ccc(Nc2nc(N)nc(-c3cccc(NC(=O)c4ccc(C(C)(C)C)cc4)c3CO)n2)cc1 [Example 70, N-{3-[4-Amino-6-({4-[3-(dimethylamino)prop-oxy]phenyl}amino)-1,3,5-triazin-2-yl]-2-(hydroxy-methyl)phenyl}-4-(tert-butyl)benzamide]	–	> 70%	–
–	0.7 nM	Cn1cc(Nc2nc(N)nc(-c3cccc(N4CCc5cc(C6CC6)cc(F)c5C4=O)c3CO)n2)cn1 [Example 180, 2-(3-{4-Amino-6-[(1-methyl-1H-pyrazol-4-yl)amino]-1,3,5-triazin-2-yl}-2-(hydroxymeth-yl)phenyl)-6-cyclopro-pyl-8-fluoro-3,4-dihy-droisoquinolin-1(2H)-one]	–	> 70%	–
–	1.1 nM	Cn1ccc(Nc2nc(N)nc(-c3cccc(N4CCc5cc(C6CC6)cc(F)c5C4=O)c3CO)n2)c1 [Example 213, 2-(3-{4-Amino-6-[(1-meth-yl-1H-pyrrol-3-yl)amino]-1,3,5-triazin-2-yl}-2-(hydroxymethyl)phenyl)-6-cyclopropyl-8-fluoro-3,4-dihydro-isoquinolin-1(2H)-one]	–	> 70%	–
–	0.3 nM	Nc1nc(Nc2cnn(CC3CC3)c2)nc(-c2cccc(N3CCc4cc(C5CC5)cc(F)c4C3=O)c2CO)n1 [Example 214, 2-[3-(4-Amino-6-{[1-(cyclo-propylmethyl)-1H-pyrazol-4-yl]amino}-1,3,5-triazin-2-yl)-2-(hydroxymethyl)phenyl]-6-cyclopropyl-8-fluoro-3,4-dihydroisoquinolin-1(2H)-one]	–	> 70%	–
–	1 nM	C=CCn1cc(Nc2nc(N)nc(-c3cccc(N4CCc5cc(C6CC6)cc(F)c5C4=O)c3CO)n2)cn1 [Example 274, 2-(3-{4-[(1-Allyl-1H-pyrazol-4-yl)amino]-6-amino-1,3,5-triazin-2-yl}-2-(hydroxymethyl)phenyl)-6-cyclopropyl-8-fluoro-3,4-dihydro-isoquinolin-1(2H)-one]	–	–	–
–	1.7 nM	Nc1nc(Nc2cnn(CC(F)F)c2)nc(-c2cccc(N3CCc4cc(C5CC5)cc(F)c4C3=O)c2CO)n1 [Example 275, 2-[3-(4-Amino-6-{[1-(2,2-difluoroethyl)-1H-pyrazol-4-yl]amino}-1,3,5-triazin-2-yl)-2-(hydroxymethyl)phenyl]-6-cyclopropyl-8-fluoro-3,4-dihydroisoquinolin-1(2H)-one]	–	–	–
–	3.3 nM	Nc1nc(Nc2ccn(C3CC3)c2)nc(-c2cccc(N3CCc4cc(C5CC5)cc(F)c4C3=O)c2CO)n1 [Example 277, 2-(3-{4-Amino-6-[(1-cyclo-propyl-1H-pyrrol-3-yl)amino]-1,3,5-tri-azin-2-yl}-2-(hydroxy-methyl)phenyl)-6-cyclo-propyl-8-fluoro-3,4-dihydroisoquinolin-1(2H)-one]	–	–	–
–	2.2 nM	CC(C)(O)Cn1cc(Nc2nc(N)nc(-c3cccc(N4CCc5cc(C6CC6)cc(F)c5C4=O)c3CO)n2)cn1 [Example 278, 2-[3-(4-Amino-6-{[1-(2-hydroxy-2-methylpro-pyl)-1H-pyrazol-4-yl]amino}-1,3,5-triazin-2-yl)-2-(hydroxymethyl)phenyl]-6-cyclopropyl-8-fluoro-3,4-dihydro-isoquinolin-1(2H)-one]	–	–	–
